Counter-ions that a name gives are not always drawn. Like-named read-outs stand apart in the source and are kept apart here.
What was measured:
[1] = target: Human KDR (residues 790-1356) (Homo sapiens (Human), UniProt P35968); assay: Human KDR kinase assay, HTRF KinEase (Example B-2); assay type: biochemical
Outline: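 Human KDR residues 790-1356 (0.1 ng/well) in buffer with 5 mM MgCl2, 1 mM MnCl2, 1 mM DTT, biotinylated peptide substrate, ATP at Km (4.0 μM), 3% DMSO, 10 compound concentrations; 40 min, room temperature. EDTA stop, streptavidin-XL665/Eu-TK antibody HTRF read 665/620 nm; 4-parameter IC50.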

[2] = target: Met (phospho-Met, HGF-stimulated PC-3 prostate cancer cells) (Homo sapiens (Human), UniProt P08581); assay: Met autophosphorylation ELISA in PC-3 cells (Example F); assay type: cell-based; conditions: cellular activity; Met autophosphorylation ELISA in PC-3 cells; read-out: c-Met IC50
Sequence of Met (phospho-Met, HGF-stimulated PC-3 prostate cancer cells) (P08581 25-1390): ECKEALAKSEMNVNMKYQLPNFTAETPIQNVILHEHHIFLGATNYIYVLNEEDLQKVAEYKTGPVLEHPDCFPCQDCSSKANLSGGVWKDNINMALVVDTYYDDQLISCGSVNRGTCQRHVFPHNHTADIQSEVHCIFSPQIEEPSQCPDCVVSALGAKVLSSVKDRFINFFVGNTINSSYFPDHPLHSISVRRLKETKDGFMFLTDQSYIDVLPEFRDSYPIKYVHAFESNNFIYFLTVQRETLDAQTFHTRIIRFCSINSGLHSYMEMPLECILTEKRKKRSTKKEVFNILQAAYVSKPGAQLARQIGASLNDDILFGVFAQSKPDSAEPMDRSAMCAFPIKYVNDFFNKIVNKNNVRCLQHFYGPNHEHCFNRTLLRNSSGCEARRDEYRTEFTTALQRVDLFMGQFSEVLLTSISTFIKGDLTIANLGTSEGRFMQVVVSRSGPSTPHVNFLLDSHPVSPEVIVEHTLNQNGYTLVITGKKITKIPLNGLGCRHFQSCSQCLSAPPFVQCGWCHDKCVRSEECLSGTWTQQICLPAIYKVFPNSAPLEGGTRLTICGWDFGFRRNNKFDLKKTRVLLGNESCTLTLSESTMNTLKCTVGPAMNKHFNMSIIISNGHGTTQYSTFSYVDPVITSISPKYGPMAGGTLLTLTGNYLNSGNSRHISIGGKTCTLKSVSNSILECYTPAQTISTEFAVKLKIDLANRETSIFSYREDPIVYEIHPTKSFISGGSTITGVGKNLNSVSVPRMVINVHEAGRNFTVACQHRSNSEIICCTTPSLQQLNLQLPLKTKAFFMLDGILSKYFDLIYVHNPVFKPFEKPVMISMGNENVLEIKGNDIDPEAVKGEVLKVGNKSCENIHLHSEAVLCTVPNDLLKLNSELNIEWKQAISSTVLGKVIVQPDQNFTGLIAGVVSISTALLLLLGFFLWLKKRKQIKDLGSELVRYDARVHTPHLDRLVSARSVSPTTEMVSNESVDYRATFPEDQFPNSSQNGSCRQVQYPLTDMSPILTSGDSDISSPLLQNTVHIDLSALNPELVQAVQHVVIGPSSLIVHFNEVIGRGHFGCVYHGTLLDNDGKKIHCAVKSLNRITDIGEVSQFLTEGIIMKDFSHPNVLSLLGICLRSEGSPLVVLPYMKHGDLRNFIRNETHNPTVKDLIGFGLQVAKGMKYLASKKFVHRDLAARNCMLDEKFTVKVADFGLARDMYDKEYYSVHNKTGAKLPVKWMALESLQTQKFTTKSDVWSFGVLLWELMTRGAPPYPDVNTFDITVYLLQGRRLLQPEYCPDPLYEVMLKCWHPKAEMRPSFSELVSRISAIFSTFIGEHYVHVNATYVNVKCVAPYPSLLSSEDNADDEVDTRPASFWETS
Outline: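 IC50 values derive from a 4-parameter logistic fit of phospho-Met (panTyr) sandwich ELISA signals in PC-3 lysates, scaled between DMSO and reference-inhibitor wells. Cells, starved 3 h in serum-free medium, had 1 h compound exposure (8 doses, 0.3% DMSO) before 10 min stimulation with 100 ng/mL HGF.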

[3] = target: Mer (phospho-Mer, MERTK-transfected 293A cells) (Homo sapiens (Human), UniProt Q12866); assay: Mer autophosphorylation ELISA in transient transfected 293A cells (Example H); assay type: cell-based; conditions: cellular activity; Mer autophosphorylation ELISA in transient transfected 293A cells
Sequence of Mer (phospho-Mer, MERTK-transfected 293A cells) (Q12866 21-999): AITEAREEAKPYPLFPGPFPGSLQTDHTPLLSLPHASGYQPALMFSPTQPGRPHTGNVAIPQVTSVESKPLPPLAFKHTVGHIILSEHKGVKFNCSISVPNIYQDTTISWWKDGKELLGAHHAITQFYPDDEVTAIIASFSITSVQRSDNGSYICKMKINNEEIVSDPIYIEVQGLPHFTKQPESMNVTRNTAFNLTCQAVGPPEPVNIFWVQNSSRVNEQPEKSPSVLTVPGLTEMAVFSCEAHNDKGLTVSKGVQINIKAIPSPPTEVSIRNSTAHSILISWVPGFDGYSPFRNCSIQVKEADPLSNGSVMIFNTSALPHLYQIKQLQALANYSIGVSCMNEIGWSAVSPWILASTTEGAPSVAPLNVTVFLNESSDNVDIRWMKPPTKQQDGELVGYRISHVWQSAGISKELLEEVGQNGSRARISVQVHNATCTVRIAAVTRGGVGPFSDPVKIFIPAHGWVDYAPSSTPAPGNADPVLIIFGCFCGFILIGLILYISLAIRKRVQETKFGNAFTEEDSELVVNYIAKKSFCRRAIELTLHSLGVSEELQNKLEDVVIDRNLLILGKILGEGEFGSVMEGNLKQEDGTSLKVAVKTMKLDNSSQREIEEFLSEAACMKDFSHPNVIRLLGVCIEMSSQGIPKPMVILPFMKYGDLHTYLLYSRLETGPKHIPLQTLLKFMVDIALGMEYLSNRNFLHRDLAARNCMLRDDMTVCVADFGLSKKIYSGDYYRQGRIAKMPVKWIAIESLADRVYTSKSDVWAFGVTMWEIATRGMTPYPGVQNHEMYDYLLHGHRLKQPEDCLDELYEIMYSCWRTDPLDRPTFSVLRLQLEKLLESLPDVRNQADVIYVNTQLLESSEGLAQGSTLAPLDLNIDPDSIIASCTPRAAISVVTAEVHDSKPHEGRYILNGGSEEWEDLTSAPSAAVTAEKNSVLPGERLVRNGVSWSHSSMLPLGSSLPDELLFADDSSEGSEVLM
Outline: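 Human MERTK transiently transfected into 293A cells; compounds as 8-point dose curve in serum-free medium (0.3% DMSO final), 1 h. Lysates assayed by phospho-Mer sandwich ELISA against phospho-Mer standard; DMSO = 100%, reference inhibitor = 0% activity; IC50 from 4-parameter logistic fit.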

[4] = target: Human MET (residues 956-1390) (Homo sapiens (Human), UniProt P08581); assay: Human Met kinase assay, HTRF KinEase (Example D-2); assay type: biochemical; conditions: read-out: c-Met IC50
Sequence of Human MET (residues 956-1390) (P08581 956-1390): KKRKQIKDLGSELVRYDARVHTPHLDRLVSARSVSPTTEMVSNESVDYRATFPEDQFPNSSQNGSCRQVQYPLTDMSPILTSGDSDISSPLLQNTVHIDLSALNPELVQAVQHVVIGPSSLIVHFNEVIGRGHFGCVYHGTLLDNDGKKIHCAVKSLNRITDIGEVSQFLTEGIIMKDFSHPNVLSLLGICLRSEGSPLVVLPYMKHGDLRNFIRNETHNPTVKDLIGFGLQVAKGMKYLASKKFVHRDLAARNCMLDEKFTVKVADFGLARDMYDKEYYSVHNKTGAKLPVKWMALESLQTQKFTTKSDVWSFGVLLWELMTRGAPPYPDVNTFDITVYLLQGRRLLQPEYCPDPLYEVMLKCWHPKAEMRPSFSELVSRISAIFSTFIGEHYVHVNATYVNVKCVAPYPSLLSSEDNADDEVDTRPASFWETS
Outline: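 HTRF KinEase assay on MET residues 956-1390 (0.1 ng/well) in buffer with 5 mM MgCl2, 1 mM DTT and 1 mM MnCl2, with biotinylated peptide substrate, ATP at Km, 10 compound concentrations and 3% DMSO final, run 40 min at room temperature. The […] signal was normalized to DMSO and to 1 μM reference compound, and IC50 came from a 4-parameter logistic fit.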

[5] = protocol of Example B-2 (other compounds)
[6] = protocol of Example D-2 (other compounds)

Sequence of Human KDR (residues 790-1356) (P35968 790-1356): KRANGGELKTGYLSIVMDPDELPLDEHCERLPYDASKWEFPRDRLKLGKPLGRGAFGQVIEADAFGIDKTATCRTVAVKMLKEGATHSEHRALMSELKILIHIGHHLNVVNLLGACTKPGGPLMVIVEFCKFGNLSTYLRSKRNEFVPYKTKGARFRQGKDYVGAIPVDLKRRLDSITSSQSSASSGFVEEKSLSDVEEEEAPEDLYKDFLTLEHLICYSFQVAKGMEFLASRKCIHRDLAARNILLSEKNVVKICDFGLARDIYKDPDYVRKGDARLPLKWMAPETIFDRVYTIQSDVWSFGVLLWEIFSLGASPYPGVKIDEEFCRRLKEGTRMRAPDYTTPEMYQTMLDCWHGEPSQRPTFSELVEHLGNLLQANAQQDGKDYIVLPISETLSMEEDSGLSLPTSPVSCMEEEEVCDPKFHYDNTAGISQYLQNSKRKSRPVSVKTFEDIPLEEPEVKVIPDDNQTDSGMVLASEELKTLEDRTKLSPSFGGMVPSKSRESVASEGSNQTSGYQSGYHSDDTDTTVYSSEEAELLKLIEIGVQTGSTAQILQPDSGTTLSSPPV

Which IC50 ([1]; protocol of Example B-2) does the source give for `Cc1cc(F)ccc1-c1c(C)ncc(C(=O)Nc2ccc(Oc3ccnc4cc(C(C)C)cnc34)c(F)c2)c1O` [Compound 593, 5-(4-Fluoro-2-methylphenyl)-N-[3-fluoro-4-[(7-propan-2-yl-1,5-naphthyridin-4-yl)oxy]phenyl]-4-hydroxy-6-methylpyridine-3-carboxamide] here?
The IC50 was > 300 nM.

What about the IC50 [2] of the same compound?
Its IC50 is < 100 nM.

What about the IC50 [3] of the same compound?
The IC50 was < 100 nM.

What about the IC50 ([4]; protocol of Example D-2) of the same compound?
The IC50 was 100 to 300 nM.

`COc1cc2nccc(Oc3ccc(NC(=O)c4cn(C(C)C)c(C)c(-c5ccc(F)cc5)c4=O)cc3F)c2nc1N` [Compound 579, N-[4-[(6-Amino-7-methoxy-1,5-naphthyridin-4-yl)oxy]-3-fluorophenyl]-5-(4-fluorophenyl)-6-methyl-4-oxo-1-propan-2-ylpyridine-3-carboxamide] was tested. Which IC50 ([1]; protocol of Example B-2) did it give?
The IC50 was > 300 nM.

What about the IC50 [2] of the same compound?
The IC50 was < 100 nM.

And the IC50 [3]?
The IC50 was < 100 nM.

And the IC50 ([4]; protocol of Example D-2)?
Its IC50 is < 100 nM.

`Cc1nc(C)c(-c2ccc(F)cc2)c(O)c1C(=O)Nc1ccc(Oc2ccnc3cc(C(C)C)cnc23)c(F)c1` [Compound 595, 5-(4-Fluorophenyl)-N-[3-fluoro-4-[(7-propan-2-yl-1,5-naphthyridin-4-yl)oxy]phenyl]-4-hydroxy-2,6-dimethylpyridine-3-carboxamide] was tested. Which IC50 ([1]; protocol of Example B-2) did it give?
The IC50 was 100 to 300 nM.

And the IC50 [2]?
The IC50 was < 100 nM.

What about the IC50 [3] of the same compound?
The IC50 was < 100 nM.

And the IC50 ([4]; protocol of Example D-2)?
The IC50 was 100 to 300 nM.

Which results are given for `COc1cc2nccc(Oc3ccc(NC(=O)c4cn(C(C)C)c(C)c(-c5ccccc5)c4=O)cc3F)c2nc1OC` [Compound 29, N-[4-[(6,7-Dimethoxy-1,5-naphthyridin-4-yl)oxy]-3-fluorophenyl]-6-methyl-4-oxo-5-phenyl-1-propan-2-ylpyridine-3-carboxamide hydrochloride]?
IC50 [1, 5]: < 100 nM; IC50 [2]: < 100 nM; IC50 [3]: < 100 nM; IC50 [4, 6]: < 100 nM

What does the source list for `CCn1cc(C(=O)Nc2ccc(Oc3ccnc4cc(OC)c(OC)nc34)cc2)c(=O)c(-c2ccc(F)cc2)c1` [Compound 167, N-[4-[(6,7-Dimethoxy-1,5-naphthyridin-4-yl)oxy]phenyl]-1-ethyl-5-(4-fluorophenyl)-4-oxopyridine-3-carboxamide]?
IC50 [1, 5]: 100 to 300 nM; IC50 [2]: < 100 nM; IC50 [3]: < 100 nM; IC50 [4, 6]: < 100 nM

What does the source list for `Cc1nc2c(Oc3ccc(NC(=O)c4cnc(C)c(-c5ccc(F)cc5)c4O)cc3F)ccnc2cc1-c1cnn(C(F)F)c1` [Compound 615, N-[4-[[7-[1-(Difluoromethyl)pyrazol-4-yl]-6-methyl-1,5-naphthyridin-4-yl]oxy]-3-fluorophenyl]-5-(4-fluorophenyl)-4-hydroxy-6-methylpyridine-3-carboxamide hydrochloride]?
IC50 ([1]; protocol of Example B-2): < 100 nM; IC50 [2]: < 100 nM; IC50 [3]: < 100 nM; IC50 ([4]; protocol of Example D-2): < 100 nM

Which IC50 [1, 5] does the source give for `COc1nc2c(Oc3ccc(NC(=O)c4cnc(C)c(-c5ccc(F)cc5)c4O)cc3F)ccnc2cc1Br` [Compound 130, N-[4-[(7-Bromo-6-methoxy-1,5-naphthyridin-4-yl)oxy]-3-fluorophenyl]-5-(4-fluorophenyl)-4-hydroxy-6-methylpyridine-3-carboxamide] here?
Its IC50 is < 100 nM.

And the IC50 [2]?
The IC50 was < 100 nM.

What about the IC50 [3] of the same compound?
Its IC50 is < 100 nM.

What about the IC50 [4, 6] of the same compound?
Its IC50 is < 100 nM.

Which results are given for `CCn1cc(C(=O)Nc2ccc(Oc3ccnc4cc(OC)cnc34)c(F)c2)c(=O)c(-c2ccc(F)cc2)c1` [Compound 170, 1-Ethyl-N-[3-fluoro-4-[(7-methoxy-1,5-naphthyridin-4-yl)oxy]phenyl]-5-(4-fluorophenyl)-4-oxopyridine-3-carboxamide]?
IC50 [1, 5]: > 300 nM; IC50 [2]: < 100 nM; IC50 [3]: < 100 nM; IC50 [4, 6]: < 100 nM

Which IC50 [1, 5] does the source give for `COc1cc2nccc(Oc3ccc(NC(=O)c4cn(-c5cccnc5)cc(-c5ccc(F)cc5)c4=O)cc3F)c2nc1OC` [Compound 125, N-[4-[(6,7-Dimethoxy-1,5-naphthyridin-4-yl)oxy]-3-fluorophenyl]-5-(4-fluorophenyl)-4-oxo-1-pyridin-3-ylpyridine-3-carboxamide] here?
The IC50 was > 300 nM.

And the IC50 [2]?
The IC50 was < 100 nM.

What about the IC50 [3] of the same compound?
Its IC50 is < 100 nM.

What about the IC50 [4, 6] of the same compound?
The IC50 was < 100 nM.

Which IC50 [1, 5] does the source give for `COc1cnc2c(Oc3ccc(NC(=O)c4cn(C)c(C)c(-c5ccc(F)cc5)c4=O)cc3F)ccnc2c1` [Compound 156, N-[3-Fluoro-4-[(7-methoxy-1,5-naphthyridin-4-yl)oxy]phenyl]-5-(4-fluorophenyl)-1,6-dimethyl-4-oxopyridine-3-carboxamide] here?
Its IC50 is > 300 nM.

What about the IC50 [2] of the same compound?
The IC50 was < 100 nM.

What about the IC50 [3] of the same compound?
Its IC50 is < 100 nM.

What about the IC50 [4, 6] of the same compound?
Its IC50 is < 100 nM.

What does the source list for `COc1cc2nccc(Oc3ccc(NC(=O)c4cn(C(C)C)c(C)c(-c5ccc(F)cc5)c4=O)cc3F)c2nc1O` [Compound 580, N-[3-Fluoro-4-[(6-hydroxy-7-methoxy-1,5-naphthyridin-4-yl)oxy]phenyl]-5-(4-fluorophenyl)-6-methyl-4-oxo-1-propan-2-ylpyridine-3-carboxamide]?
IC50 ([1]; protocol of Example B-2): > 300 nM; IC50 [2]: < 100 nM; IC50 [3]: < 100 nM; IC50 ([4]; protocol of Example D-2): < 100 nM

Which IC50 ([1]; protocol of Example B-2) does the source give for `Cc1nc2c(Oc3ccc(NC(=O)c4cnc(C)c(-c5ccc(F)cc5)c4O)cc3)ccnc2cc1-c1cnn(C(F)F)c1` [Compound 617, N-[4-[[7-[1-(Difluoromethyl)pyrazol-4-yl]-6-methyl-1,5-naphthyridin-4-yl]oxy]phenyl]-5-(4-fluorophenyl)-4-hydroxy-6-methylpyridine-3-carboxamide hydrochloride] here?
The IC50 was 100 to 300 nM.

What about the IC50 [2] of the same compound?
The IC50 was < 100 nM.

What about the IC50 [3] of the same compound?
The IC50 was < 100 nM.

And the IC50 ([4]; protocol of Example D-2)?
Its IC50 is < 100 nM.

For `COc1cc2c(Oc3ccc(NC(=O)c4cn(C5CC5)c(C)c(-c5ccc(F)cc5)c4=O)cc3F)ccnc2cn1` [Compound 640, 1-cyclopropyl-N-[3-fluoro-4-[(6-methoxy-1,7-naphthyridin-4-yl)oxy]phenyl]-5-(4-fluorophenyl)-6-methyl-4-oxopyridine-3-carboxamide], which IC50 ([1]; protocol of Example B-2) is on record?
The IC50 was > 300 nM.

And the IC50 [2]?
Its IC50 is < 100 nM.

And the IC50 [3]?
Its IC50 is < 100 nM.

What about the IC50 ([4]; protocol of Example D-2) of the same compound?
The IC50 was < 100 nM.

What does the source list for `Cc1ncc(C(=O)Nc2ccc(Oc3ccnc4cnccc34)c(F)c2)c(O)c1-c1ccc(F)cc1` [Compound 642, N-[3-fluoro-4-(1,7-naphthyridin-4-yloxy)phenyl]-5-(4-fluorophenyl)-4-hydroxy-6-methylpyridine-3-carboxamide]?
IC50 ([1]; protocol of Example B-2): < 100 nM; IC50 [2]: < 100 nM; IC50 [3]: < 100 nM; IC50 ([4]; protocol of Example D-2): < 100 nM

Which IC50 ([1]; protocol of Example B-2) does the source give for `Cc1ncc(C(=O)Nc2ccc(Oc3ccnc4cc(C(N)=O)cnc34)c(F)c2)c(O)c1-c1ccc(F)cc1` [Compound 577, 8-[2-Fluoro-4-[[5-(4-fluorophenyl)-4-hydroxy-6-methylpyridine-3-carbonyl]amino]phenoxy]-1,5-naphthyridine-3-carboxamide] here?
Its IC50 is < 100 nM.

What about the IC50 [2] of the same compound?
Its IC50 is < 100 nM.

And the IC50 [3]?
The IC50 was 100 to 300 nM.

And the IC50 ([4]; protocol of Example D-2)?
Its IC50 is < 100 nM.

Which results are given for `Cc1ncc(C(=O)Nc2ccc(Oc3ccnc4cc(C(C)C)cnc34)c(F)c2)c(O)c1-c1ccc(F)cc1` [Compound 596, 5-(4-Fluorophenyl)-N-[3-fluoro-4-[(7-propan-2-yl-1,5-naphthyridin-4-yl)oxy]phenyl]-4-hydroxy-6-methylpyridine-3-carboxamide]?
IC50 ([1]; protocol of Example B-2): > 300 nM; IC50 [2]: < 100 nM; IC50 [3]: < 100 nM; IC50 ([4]; protocol of Example D-2): < 100 nM

Which IC50 ([1]; protocol of Example B-2) does the source give for `COc1cc2nccc(Oc3ccc(NC(=O)c4cnc(C)c(-c5ccc(F)cc5)c4O)cc3F)c2nc1NS(C)(=O)=O` [Compound 584, N-[3-Fluoro-4-[[6-(methanesulfonamido)-7-methoxy-1,5-naphthyridin-4-yl]oxy]phenyl]-5-(4-fluorophenyl)-4-hydroxy-6-methylpyridine-3-carboxamide] here?
Its IC50 is < 100 nM.

And the IC50 [2]?
Its IC50 is < 100 nM.

What about the IC50 [3] of the same compound?
The IC50 was 100 to 300 nM.

And the IC50 ([4]; protocol of Example D-2)?
Its IC50 is < 100 nM.

Which results are given for `COc1nc2c(Oc3ccc(NC(=O)c4cncc(-c5ccc(F)cc5)c4O)cc3F)ccnc2cc1Br` [Compound 129, N-[4-[(7-Bromo-6-methoxy-1,5-naphthyridin-4-yl)oxy]-3-fluorophenyl]-5-(4-fluorophenyl)-4-hydroxypyridine-3-carboxamide]?
IC50 [1, 5]: < 100 nM; IC50 [2]: 100 to 300 nM; IC50 [3]: < 100 nM; IC50 [4, 6]: < 100 nM

How did the IC50 [1, 5] turn out when `Cc1ncc(C(=O)Nc2ccc(Oc3ccnc4cc(C(F)(F)F)cnc34)c(F)c2)c(O)c1-c1ccc(F)cc1` [Compound 151, 5-(4-Fluorophenyl)-N-[3-fluoro-4-[[7-(trifluoromethyl)-1,5-naphthyridin-4-yl]oxy]phenyl]-4-hydroxy-6-methylpyridine-3-carboxamide] was run?
The IC50 was > 300 nM.

And the IC50 [2]?
The IC50 was < 100 nM.

What about the IC50 [3] of the same compound?
The IC50 was < 100 nM.

What about the IC50 [4, 6] of the same compound?
The IC50 was < 100 nM.

For `Cc1cc2c(Oc3ccc(NC(=O)c4cnc(C)c(-c5ccc(F)cc5)c4O)cc3F)ccnc2cn1` [Compound 645, N-[3-fluoro-4-[(6-methyl-1,7-naphthyridin-4-yl)oxy]phenyl]-5-(4-fluorophenyl)-4-hydroxy-6-methylpyridine-3-carboxamide], which IC50 ([1]; protocol of Example B-2) is on record?
Its IC50 is < 100 nM.

What about the IC50 [2] of the same compound?
The IC50 was < 100 nM.

And the IC50 [3]?
The IC50 was < 100 nM.

And the IC50 ([4]; protocol of Example D-2)?
The IC50 was < 100 nM.
